Assay results from US7994219B2, “Approach to anti-microbial host defense with molecular shields with lipoxin compounds” (The Brigham and Women's Hospital, Inc., priority 2001, dated 2011).

What was measured:
BPI [1] = assay: Semi-quantitative RT-PCR of BPI transcript in KB cells; format: cell-based, human
BPI [2] = assay: Quantitative genechip microarray transcriptional profile of KB epithelial cells exposed to ATLa; format: cell-based, human; details: 1 μM ATLa
BPI [3] = assay: RT-PCR of BPI transcript in OKF6, T84 and Caco2 epithelial cells; format: cell-based, human
BPI [4] = assay: Immunoprecipitation of biotinylated plasma membrane protein and avidin blot for surface BPI in T84 cells; format: cell-based, human; details: 1 μM ATLa, at 36 h
Experimental: Epithelial cells were grown to confluence on 45 cm^2 permeable supports, and exposed to ATLa or vehicle (0.01% EtOH), as indicated. Cells were washed extensively in HBSS, cooled to 4° C., and extracellular proteins were biotinylated (1 mM NHS-biotin (Pierce Chemical Co., Rockford, Ill.) in HBSS) as previously described (18). Plasma membranes were isolated using nitrogen cavitation (200 psi, 8 min., 4° C.) as previously described (18). Recombinant human BPI (100 ng/ml, was directly biotinylated and excess biotin was removed by multiple washes on a 5 kD cut-off membrane filter (Amicon, Beverly Mass.). Fractions were pre-cleared with 50 μl pre-equilibrated protein-G sepharose (Pharmacia, Uppsala Sweden). Immunoprecipitation of BPI was performed with goat polyclonal anti-BPI followed by addition of 50 μl pre-equilibrated protein-G sepharose and overnight incubation. Washed immunoprecipitates were boiled in non-reducing sample buffer (2.5% SDS, 0.38 M Tris pH 6.8, 20% glycerol, and 0.1% bromophenol blue), resolved by non-reducing SDS-PAGE (18% polyacrylamide gel), transferred to nitrocellulose, and blocked overnight in blocking buffer. Biotinylated proteins were labeled with streptavidin-peroxidase (Pierce Chemical Co., Rockford, Ill.) and visualized by enhanced chemiluminescence (ECL; Amersham, Arlington Heights, Ill.).

BPI [5] = assay: Confocal microscopy of surface BPI on non-permeabilized Caco2 cells; format: cell-based, human; details: 1 μM for 24 hr
Experimental: OKF6 or Caco2 cells were grown to confluence on acid washed 12 mm glass coverslips. Monolayers were exposed to indicated experimental conditions, washed once in phosphate buffered saline, and fixed for 10 minutes at room temperature in 1% paraformaldehyde in cacodylate buffer (0.1M sodium cacodylate; pH 7.4, 0.72% sucrose). After washing twice with PBS, the cells were incubated for 1 hour with rabbit polyclonal BPI antisera (1:300 dilution) or control sera (equivalent dilution depleted of specific antibody through 3 consecutive adsorptions with sepharose beads covalently linked to rBPI via cyanogens bromide coupling, kit from Pierce Chemical Co., Rockford, Ill.). After washing, the monolayers were incubated with goat anti-rabbit Oregon Green (1 μg/ml, Molecular Probes, Eugene, Oreg.). Cells were imaged on a BioRad MRC-600 confocal fluorescence microscope.

Salmonella typhimurium = assay: Bacterial killing assay: adherent Caco2 cells with Salmonella typhimurium (CFU); format: cell-based; details: Caco2 pre-exposure to 1 μM ATLa, 24 hr; killing over 60 min
Experimental: Salmonella typhimurium (strain 14028 from American Type Culture Collection, Rockville, Md.) were cultured and grown in Luria broth as previously described (22). In subsets of experiments, Enterococcus faecalis (strain PCI 1326 from American Type Culture Collection, Rockville, Md.) were cultured as previously described (23). Caco2 epithelial cells were grown to confluence of 60 mm petri dishes and exposed to indicated experimental conditions. Cells were washed once with HBSS, and washed bacteria were added to epithelial monolayers at a ratio of 50 bacteria per adherent epithelial cell. Incubations were allowed to proceed for 90 minutes or as indicated on a rotating platform. Parallel samples omitting epithelial cells were used as controls. Following incubation, supernatants were collected and epithelial cells were hypotonically lysed with 1 ml ice cold water. Bacteria were pelleted, dilutions of both pellets and supernatants were plated, incubated overnight at 37° C., and colony counts were performed. In subsets of experiments, anti-BPI antisera (1:300 in HBSS) or anti-BPI antisera pre-adsorbed with rBPI (1:300 in HBSS), as indicated, were added 30 minutes prior to incubation with bacteria. Data are presented as the mean±S.E.M. CFU.

bacteria = assay: Direct incubation of ATLa or anti-BPI with bacteria and colony counts; format: cell-based; details: direct incubation with bacteria, no epithelial cells; data not shown

## CCCCCC/C=C/C=C/C=C/C=C/[C@@H](O)[C@@H](O)CCCC(=O)O [15-deoxy-LXA4, reference compound]
BPI [1]; epithelial exposure to similar concentrations as ATLa, data not shown
  induction of BPI at the mRNA level: no induction

## O=C(O)CCC[C@H](O)[C@H](O)/C=C/C=C/C=C\C=C\[C@@H](O)COc1ccc(F)cc1 [ATLa, 15-epi-16-(para-fluoro)-phenoxy-LXA4]
BPI [2]; 4 hrs exposure
  BPI mRNA increase over control (microarray): 3.2 fold
BPI [2]; 8 hrs exposure
  BPI mRNA increase over control (microarray): 2.9 fold
BPI [1]; KB cells, 1 μM, 8 h, compared to vehicle control
  maximal increase of BPI transcript relative to β-actin by densitometry: 4.3 fold
BPI [1]; KB cells, 8 hr, 28 cycles of PCR, approximate, read-out: EC50 of BPI transcript induction (dose response)
  EC50: ~0.05 µM
BPI [3]; OKF6, T84 and Caco2 cells, 1 μM, 26 cycles of PCR
  BPI induction relative to β-actin: prominent pattern of time-dependent BPI induction
BPI [4]
  maximal increase of ~55 kDa surface protein consistent with BPI by densitometry: 12.5 fold
BPI [5]
  surface-bound BPI expression: increased expression
Salmonella typhimurium
  increase in killing of S. typhimurium: ~60%
bacteria
  direct bactericidal activity or non-specific agglutination: not explained by bactericidal activity or non-specific agglutination

## pertussis toxin [reference compound]
BPI [3]; Caco2 pre-exposure to pertussis toxin 1 μM, 30 min, ATLa 1 μM, 18 h
  decrease in BPI induction by ATLa: 65%
